Entries after “also recorded” stand apart in the source; their conditions may differ.
Key:
Format in all cases: in vivo, mouse
cholesterol absorption [1] = experiment: Absorption of [14C]cholesterol after a single gavage (intestine, liver, bile, plasma); settings: 24 hours after single gavage, mean ± SD, n=5
Procedure: Cholesterol absorption studies: A classical fecal dual-isotope ratio method was used for the cholesterol absorption study. Briefly, a mixture of [^14C]-labeled (0.1 microCi) and unlabeled cholesterol (0.5 mg) and [^3H]sitostanol (0.2 microCi) in 15 microl of olive oil was fed to mice (10-12 weeks old). Feces were collected for 24 hours. The cholesterol absorption ratio was calculated as: % absorption={1−[fecal(^14C/^3H)]/administered(^14C/^3H)}×100. In some cases, mice were sacrificed, plasma collected, and radioactivity counted. Small intestines (from duodenum to ileum) were washed and cut into 2 cm segments. Each of these, as well as a part of the liver, were digested and radioactivity counted individually.
Next, the amounts of [^14C]cholesterol present in the intestine and those transported to plasma, liver, and bile in 24 hours were measured after a single bolus of radiolabeled cholesterol.

cholesterol absorption [2] = experiment: Blood [14C]-cholesterol within 24 hours after a single gavage
Procedure: FIGS. 5A-I depict several graphs that illustrate that SPT deficient mice absorbed less cholesterol. Mice (n=6, 10-12 weeks old) were fasted for 5 hours and gavaged with 0.1 microCi [^14C]cholesterol and 0.2 microCi [^3H]sitostanol with 0.5 mg unlabeled cholesterol dissolved in 15 microl of olive oil. Feces were collected after 24 hours and lipids were extracted for counting (FIGS. 5A, 5D, and 5G, cholesterol absorption, WT vs WT/myriocin; apoE KO vs apoE KO/myriocin; WT vs Sptlc1^+/−, respectively). Blood was collected during the 24 hour period (Panels B, E, and H, [^14C]cholesterol in blood, WT vs WT/myriocin; apoE KO vs apoE KO/myriocin; WT vs Sptlc1^+/−, respectively). To test specificity, the mice were gavaged with 0.2 microCi [^3H]triolein together with 0.5 mg/ml cold cholesterol. Blood was collected during the 24 hour period (FIGS. 5C, 5F, and 5I, [^3H] glycerolipids in blood, WT versus WT/myriocin; apoE KO versus apoE KO/myriocin; WT versus Sptlc1^+/−, respectively). Value is mean±SD. *P<0.01.
This confirmed that there was defective cholesterol absorption in these animals.

ABCA1 mRNA = experiment: Real-time PCR, ABCA1 mRNA; settings: for decrease of ABCA1 mRNA levels: liver, P<0.05; for decrease of ABCA1 mRNA levels compared with controls: small intestine, P<0.01
Procedure: FIGS. 9A-F depict that Mouse small intestine and liver NPC1L1, ABCG5/G8, and ABCA1 mRNA measurements. NPC1L1, ABCG5/G8, and ABCA1 mRNA levels were measured by real-time PCR as described in “Methods and Materials.” FIG. 9A, jejunum from WT mice with or without myriocin treatment; FIG. 9B, jejunum from apoE KO mice with or without myriocin treatment; FIG. 9C, jejunum from WT and Sptlc1^+/− mice; FIG. 9D, liver from WT mice with or without myriocin treatment; FIG. 9E, liver from apoE KO mice with or without myriocin treatment; FIG. 9F, liver from WT and Sptlc1^+/− mice. Values are mean±SD, n=5. *P<0.01.
Real-time PCR examined genes' expression: Mice were sacrificed by cervical dislocation. Jejunum was dissected, and total RNA extracted with Trizol (Invitrogen). cDNA was synthesized with an Invitrogen kit. Polymerase chain reaction (PCR) was performed on a total volume of 20 microl with the sybergreen kit from Applied Biosystems, 18S being used as an internal control. The amplification program consisted of activation at 95 degrees C. for 10 minutes, followed by 40 amplification cycles: 95 degrees C. for 15 seconds, 60 degrees C. for 1 minute. Each sample was triplicated. The genes' relative expression was expressed as mean±SD. The primers are located in the below table which lists the name, sequence, and sequence identification number.
For further elucidation of the possible mechanisms for cholesterol absorption reduction in the SPT-deficient small intestine, NPC1L1, ABCG5/G8, and ABCA1 mRNA levels in myriocin-treated WT, apoE KO, and Sptlc1^+/− mice, as well as in controls were measured. […] Moreover, intestinal MTP activity was not influenced by SPT deficiency (data not shown). Also, the liver mRNA levels were measured to find that myriocin treatment or Sptlc1 deficiency has no influence on ABCG5/G8 mRNA levels […]. […] NPC1L1 mRNA in WT or Sptlc1^+/− livers were not detected (data not shown).

small intestine = experiment: Small intestine morphology, hematoxylin and eosin staining; settings: WT and apoE KO mice after myriocin treatment
Text: The small intestine was dissected out and put into 4% paraformaldehyde for fixation overnight. The tissue was then sliced (10 micrometer thick). Each slice was deparaffinized and stained with hematoxylin and eosin. The morphology was checked by microscope. WT mice fed chow diet (FIGS. 2A, 2B) or chow diet plus myriocin (FIGS. 2C, 2D). FIGS. 2A and 2C are at 10× magnification, while FIGS. 2B and 2D are at 40× magnification.
The small intestine was dissected out and put into 4% paraformaldehyde for fixation overnight. The tissue was then sliced (10 micrometer thick). Each slice was deparaffinized and stained with hematoxylin and eosin. The morphology was checked by microscope. apoE KO mice fed chow diet (FIGS. 3A, 3B) or chow diet plus myriocin (FIGS. 3C, 3D). FIGS. 3A and 3C are at 10× magnification, while FIGS. 3B and 3D are at 40× magnification.
Mouse small intestine hematoxylin and eosin staining: The small intestine was dissected out and put into 4% paraformaldehyde for fixation overnight. The tissue was then sliced (10 micro m thick). Each slice was deparaffinized and stained with hematoxylin and eosin.
To investigate whether myriocin treatment or Sptlc1^+/− had any impact on small intestine morphology, intestinal sections were stained with hematoxylin and eosin. As shown in FIGS. 2 through 4, neither myriocin treatment nor Sptlc1^+/− influenced the morphology of the small intestine.

With CCCCCCC(=O)CCCCCC/C=C/C[C@@H](O)[C@H](O)[C@@](N)(CO)C(=O)O [Myriocin, myriocin] the “[14C]cholesterol in Bile” value (cholesterol absorption [1]; ApoE KO mice) was 2284 ± 521 dpm/ml, the “[14C]cholesterol in Intestine” value (cholesterol absorption [1]; ApoE KO mice) was 4158 ± 499 dpm/g and the “[14C]cholesterol in Liver” value (cholesterol absorption [1]; ApoE KO mice) was 3337 ± 649 dpm/g. The “[14C]cholesterol in Plasma” value (cholesterol absorption [1]; ApoE KO mice) was 1350 ± 142 dpm/ml, the “[14C]cholesterol in Bile” value (cholesterol absorption [1]; WT mice) was 2108 ± 394 dpm/ml and the “[14C]cholesterol in Intestine” value (cholesterol absorption [1]; WT mice) was 5237 ± 478 dpm/g. For the same compound, the “[14C]cholesterol in Liver” value (cholesterol absorption [1]; WT mice) was 4131 ± 575 dpm/g, the “[14C]cholesterol in Plasma” value (cholesterol absorption [1]; WT mice) was 1734 ± 390 dpm/ml and the “[14C]-cholesterol in the circulation vs controls” value (cholesterol absorption [2]; myriocin-treated WT mice) was “significantly less”. For the same compound, the “[14C]-cholesterol in the circulation vs controls” value (cholesterol absorption [2]; myriocin-treated apoE KO mice) was “significantly less”, the “decrease of ABCA1 mRNA levels” value (ABCA1 mRNA; WT mice) was 20% and the “decrease of ABCA1 mRNA levels” value (ABCA1 mRNA; apoE KO mice) was 18%. For the same compound, the “decrease of ABCA1 mRNA levels compared with controls” value (ABCA1 mRNA; WT mice) was 48%, the “decrease of ABCA1 mRNA levels compared with controls” value (ABCA1 mRNA; apoE KO mice) was 39% and the “morphology / pathological changes of the small intestine (gastrointestinal toxicity)” value (small intestine) was “no pathological changes; also recorded: intact villi, epithelia, enterocytes, goblet cells, and brush borders”.
